Measurements reported in patent US9096518B2, “Substituted hydroxamic acids and uses thereof” (Millennium Pharmaceuticals, Inc., priority 2009, dated 2015).

biological target: T1, purified human HDAC6 (Homo sapiens, UniProt Q9UBN7); assay: HDAC6 Enzyme Assay; format: biochemical
T1 construct: purchased BPS Bioscience 5006
T1 sequence (Q9UBN7 1-1215): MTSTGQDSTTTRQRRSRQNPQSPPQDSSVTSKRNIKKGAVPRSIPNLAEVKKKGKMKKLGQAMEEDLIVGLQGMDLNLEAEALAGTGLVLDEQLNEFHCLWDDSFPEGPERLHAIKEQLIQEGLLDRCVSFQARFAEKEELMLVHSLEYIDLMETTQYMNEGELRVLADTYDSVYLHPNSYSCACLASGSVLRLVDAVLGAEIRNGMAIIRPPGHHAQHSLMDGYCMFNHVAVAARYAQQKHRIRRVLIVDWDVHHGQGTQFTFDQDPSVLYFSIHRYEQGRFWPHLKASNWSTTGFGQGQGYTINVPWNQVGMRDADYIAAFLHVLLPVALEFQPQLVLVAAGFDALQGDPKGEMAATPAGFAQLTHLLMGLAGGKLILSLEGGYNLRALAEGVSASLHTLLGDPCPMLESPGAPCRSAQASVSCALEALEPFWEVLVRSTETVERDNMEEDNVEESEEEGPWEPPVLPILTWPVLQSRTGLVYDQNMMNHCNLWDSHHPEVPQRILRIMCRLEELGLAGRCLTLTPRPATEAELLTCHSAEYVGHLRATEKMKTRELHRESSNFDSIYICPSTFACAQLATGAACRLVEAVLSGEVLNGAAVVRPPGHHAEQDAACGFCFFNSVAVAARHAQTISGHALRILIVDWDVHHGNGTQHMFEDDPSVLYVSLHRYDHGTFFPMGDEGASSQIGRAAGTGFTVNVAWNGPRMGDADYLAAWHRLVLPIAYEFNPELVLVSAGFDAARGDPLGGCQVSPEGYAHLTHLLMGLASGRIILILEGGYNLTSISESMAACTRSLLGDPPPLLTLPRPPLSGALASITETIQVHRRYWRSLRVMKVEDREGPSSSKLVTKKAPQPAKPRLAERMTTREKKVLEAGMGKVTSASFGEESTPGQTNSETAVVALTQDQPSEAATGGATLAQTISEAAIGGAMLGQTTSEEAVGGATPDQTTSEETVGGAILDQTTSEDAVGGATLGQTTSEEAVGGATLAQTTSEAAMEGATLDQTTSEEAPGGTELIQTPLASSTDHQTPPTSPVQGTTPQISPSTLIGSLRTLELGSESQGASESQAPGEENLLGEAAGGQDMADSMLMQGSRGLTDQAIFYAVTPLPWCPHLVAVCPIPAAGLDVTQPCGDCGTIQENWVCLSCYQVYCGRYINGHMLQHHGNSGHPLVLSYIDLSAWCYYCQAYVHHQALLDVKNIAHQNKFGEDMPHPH
Method in brief: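 Purified human HDAC6 incubated 1 h at 30 °C with Ac-Arg-Gly-Lys(Ac)-AMC peptide and compound; reaction stopped with trichostatin A, then trypsin releases AMC, read by fluorescence (Ex 340/Em 460 nm). IC50 from concentration-response curves relative to DMSO controls.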

SMILES | IC50
O=C(NO)c1ccc2c(c1)CCCN(C(=O)C13CC4CC(CC(C4)C1)C3)C2 [Compound 232, 2-(1-adamantylcarbonyl)-N-hydroxy-2,3,4,5-tetrahydro-1H-2-benzazepine-7-carboxamide] | 0.1 to 0.5 µM
Cn1ccc(C(=O)N2CCCc3cc(C(=O)NO)ccc3C2)n1 [Compound 233, N-hydroxy-2-[(1-methyl-1H-pyrazol-3-yl)carbonyl]-2,3,4,5-tetrahydro-1H-2-benzazepine-7-carboxamide] | > 0.5 µM
O=C(NO)c1ccc2c(c1)CCCN(C(=O)c1cccc3ccccc13)C2 [Compound 234, N-hydroxy-2-(1-naphthoyl)-2,3,4,5-tetrahydro-1H-2-benzazepine-7-carboxamide] | 0.1 to 0.5 µM
COc1ccc(C(=O)N2CCCc3cc(C(=O)NO)ccc3C2)cc1 [Compound 235, N-hydroxy-2-(4-methoxybenzoyl)-2,3,4,5-tetrahydro-1H-2-benzazepine-7-carboxamide] | 0.1 to 0.5 µM
O=C(NO)c1ccc2c(c1)CCCN(C(=O)Cc1cc(C(F)(F)F)cc(C(F)(F)F)c1)C2 [Compound 236, 2-{[3,5-bis(trifluoromethyl)phenyl]acetyl}-N-hydroxy-2,3,4,5-tetrahydro-1H-2-benzazepine-7-carboxamide] | > 0.5 µM
CC(C)(C)c1ccc(C(=O)N2CCCc3cc(C(=O)NO)ccc3C2)cc1 [Compound 238, 2-(4-tert-butylbenzoyl)-N-hydroxy-2,3,4,5-tetrahydro-1H-2-benzazepine-7-carboxamide] | 0.1 to 0.5 µM
O=C(NO)c1ccc2c(c1)CCCN(C(=O)c1c(F)cc(F)cc1F)C2 [Compound 241, N-hydroxy-2-(2,4,6-trifluorobenzoyl)-2,3,4,5-tetrahydro-1H-2-benzazepine-7-carboxamide] | 0.1 to 0.5 µM
O=C(NO)c1ccc2c(c1)CCCN(C(=O)c1cnc3ccccc3n1)C2 [Compound 243, N-hydroxy-2-(quinoxalin-2-ylcarbonyl)-2,3,4,5-tetrahydro-1H-2-benzazepine-7-carboxamide] | 0.1 to 0.5 µM
O=C(NO)c1ccc2c(c1)CCCN(C(=O)c1ccc(-c3ccccc3)cc1)C2 [Compound 244, 2-(biphenyl-4-ylcarbonyl)-N-hydroxy-2,3,4,5-tetrahydro-1H-2-benzazepine-7-carboxamide] | 0.1 to 0.5 µM
Cc1cc(C(=O)N2CCCc3cc(C(=O)NO)ccc3C2)no1 [Compound 245, N-hydroxy-2-[(5-methylisoxazol-3-yl)carbonyl]-2,3,4,5-tetrahydro-1H-2-benzazepine-7-carboxamide] | 0.1 to 0.5 µM
O=C(NO)c1ccc2c(c1)CCCN(C(=O)C1CCCCCC1)C2 [Compound 246, 2-(cycloheptylcarbonyl)-N-hydroxy-2,3,4,5-tetrahydro-1H-2-benzazepine-7-carboxamide] | 0.1 to 0.5 µM
O=C(NO)c1ccc2c(c1)CCCN(C(=O)C1CCCCC1)C2 [Compound 247, 2-(cyclohexylcarbonyl)-N-hydroxy-2,3,4,5-tetrahydro-1H-2-benzazepine-7-carboxamide] | 0.1 to 0.5 µM
O=C(NO)c1ccc2c(c1)CCCN(C(=O)Cc1csc3ccc(Cl)cc13)C2 [Compound 251, 2-[(5-chloro-1-benzothien-3-yl)acetyl]-N-hydroxy-2,3,4,5-tetrahydro-1H-2-benzazepine-7-carboxamide] | 0.1 to 0.5 µM
O=C(NO)c1ccc2c(c1)CCCN(C(=O)c1ccc3occc3c1)C2 [Compound 252, 2-(1-benzofuran-5-ylcarbonyl)-N-hydroxy-2,3,4,5-tetrahydro-1H-2-benzazepine-7-carboxamide] | 0.1 to 0.5 µM

Next, values leading:

IC50 | SMILES
< 0.05 µM | O=C(NO)c1ccc2c(c1)CCN(C(=O)Nc1ccc(Cc3ccccc3)cc1)C2 [Compound 99, N^2-(4-benzylphenyl)-N^6-hydroxy-3,4-dihydroisoquinoline-2,6(1H)-dicarboxamide]
< 0.05 µM | O=C(NO)c1ccc2c(c1)CCN(C(=O)Nc1cccc3ccccc13)C2 [Compound 100, N^6-hydroxy-N^2-1-naphthyl-3,4-dihydroisoquinoline-2,6(1H)-dicarboxamide]
< 0.05 µM | O=C(NO)c1ccc2c(c1)CCN(C(=O)NC1CCCCC1)C2 [Compound 101, N^2-cyclohexyl-N^6-hydroxy-3,4-dihydroisoquinoline-2,6(1H)-dicarboxamide]
< 0.05 µM | O=C(NO)c1ccc2c(c1)CCN(C(=O)Nc1ccccc1-c1ccccc1)C2 [Compound 102, N^2-biphenyl-2-yl-N^6-hydroxy-3,4-dihydroisoquinoline-2,6(1H)-dicarboxamide]
< 0.05 µM | CC(NC(=O)N1CCc2cc(C(=O)NO)ccc2C1)c1cccc2ccccc12 (stereo not drawn) [Compound 103, N^6-hydroxy-N^2-[1-(1-naphthyl)ethyl]-3,4-dihydroisoquinoline-2,6(1H)-dicarboxamide]
< 0.05 µM | CC(C)c1ccc(NC(=O)N2CCc3cc(C(=O)NO)ccc3C2)cc1 [Compound 104, N^6-hydroxy-N^2-(4-isopropylphenyl)-3,4-dihydroisoquinoline-2,6(1H)-dicarboxamide]
< 0.05 µM | Cc1ccc(CNC(=O)N2CCc3cc(C(=O)NO)ccc3C2)cc1 [Compound 105, N^6-hydroxy-N^2-(4-methylbenzyl)-3,4-dihydroisoquinoline-2,6(1H)-dicarboxamide]
0.1 to 0.5 µM | O=C(NO)c1ccc2c(c1)CCN(C(=O)CC1CC1)C2 [Compound 106, 2-(cyclopropylacetyl)-N-hydroxy-1,2,3,4-tetrahydroisoquinoline-6-carboxamide]
0.1 to 0.5 µM | O=C(NO)c1ccc2c(c1)CCN(Cc1cccc(OC(F)(F)F)c1)C2 [Compound 109, N-hydroxy-2-[3-(trifluoromethoxy)benzyl]-1,2,3,4-tetrahydroisoquinoline-6-carboxamide]
0.1 to 0.5 µM | CC(c1ccccc1)N1CCc2cc(C(=O)NO)ccc2C1 (stereo not drawn) [Compound 110, N-hydroxy-2-(1-phenylethyl)-1,2,3,4-tetrahydroisoquinoline-6-carboxamide]
0.1 to 0.5 µM | O=C(NO)c1ccc2c(c1)CCN(CCOc1ccc(Cl)cc1)C2 [Compound 111, 2-[2-(4-chlorophenoxy)ethyl]-N-hydroxy-1,2,3,4-tetrahydroisoquinoline-6-carboxamide]
0.1 to 0.5 µM | O=C(NO)c1ccc2c(c1)CCN(S(=O)(=O)c1csc(-c3ccon3)c1)C2 [Compound 112, N-hydroxy-2-[(5-isoxazol-3-yl-3-thienyl)sulfonyl]-1,2,3,4-tetrahydroisoquinoline-6-carboxamide]
0.05 to 0.1 µM | Cc1cccc(C)c1NC(=O)CN1CCc2cc(C(=O)NO)ccc2C1 [Compound 116, 2-{2-[(2,6-dimethylphenyl)amino]-2-oxoethyl}-N-hydroxy-1,2,3,4-tetrahydroisoquinoline-6-carboxamide]
0.05 to 0.1 µM | CC(C)(C)OC(=O)Nc1ccc(-c2cc(C(=O)N3CCc4cc(C(=O)NO)ccc4C3)no2)cc1 [Compound 237, tert-butyl[4-(3-{[6-[(hydroxyamino)carbonyl]-3,4-dihydroisoquinolin-2(1H)-yl]carbonyl}isoxazol-5-yl)phenyl]carbamate]
< 0.05 µM | O=C(NO)c1ccc2c(c1)CCCN(C(=O)c1cc3ccccc3s1)C2 [Compound 239, 2-(1-benzothien-2-ylcarbonyl)-N-hydroxy-2,3,4,5-tetrahydro-1H-2-benzazepine-7-carboxamide]
< 0.05 µM | O=C(NO)c1ccc2c(c1)CCCN(C(=O)c1cc3cc(Cl)ccc3[nH]1)C2 [Compound 240, 2-[(5-chloro-1H-indol-2-yl)carbonyl]-N-hydroxy-2,3,4,5-tetrahydro-1H-2-benzazepine-7-carboxamide]
< 0.05 µM | COc1cccc2cc(C(=O)N3CCCc4cc(C(=O)NO)ccc4C3)oc12 [Compound 242, N-hydroxy-2-[(7-methoxy-1-benzofuran-2-yl)carbonyl]-2,3,4,5-tetrahydro-1H-2-benzazepine-7-carboxamide]
< 0.05 µM | O=C(NO)c1ccc2c(c1)CCN(C(=O)C13CC4CC(CC(O)(C4)C1)C3)C2 [Compound 248, N-hydroxy-2-[(3-hydroxy-1-adamantyl)carbonyl]-1,2,3,4-tetrahydroisoquinoline-6-carboxamide]
< 0.05 µM | O=C(NO)c1ccc2c(c1)CCCN(C(=O)c1cc3ccccc3o1)C2 [Compound 250, 2-(1-benzofuran-2-ylcarbonyl)-N-hydroxy-2,3,4,5-tetrahydro-1H-2-benzazepine-7-carboxamide]
